# Measured values as given in patent publication US10813354B2, “Herbicidal pyridazinone compounds” (SYNGENTA PARTICIPATIONS AG, priority 2016, dated 2020).
# Experiments:
# Format in all cases: in vivo
# Conditions in all cases: sprayed after 10 days cultivation, evaluated after 14 days
# [1] = test system: HORVW (Hordeum vulgare—barley); test: Post-emergence glasshouse herbicide test, crop damage on barley
# Method: (§1) Seeds of a variety of test species HORVW (Hordeum vulgare—barley), ABUTH (Abutilon theophrasti), AMARE (Amaranthus retroflexus) and ECHCG (Echinochloa crus-galli) were sown in standard soil in pots. After cultivation for 10 days cultivation under controlled conditions in a glasshouse (at 24/16° C., day/night; 14 hours light; 65% humidity), the plants were sprayed with an aqueous spray solution derived from the formulation of the technical active ingredient in 0.6 ml acetone and 45 ml formulation solution containing 10.6% Emulsogen EL (Registry number 61791-12-6), 42.2% N-methyl pyrrolidone, 42.2% dipropylene glycol monomethyl ether (CAS RN 34590-94-8) and 0.2% X-77 (CAS RN 11097-66-8).
# (§2) The test plants were then grown in a glasshouse under controlled conditions in a glasshouse (at 24/16° C., day/night; 14 hours light; 65% humidity) and watered twice daily. After 14 days, the test was evaluated (100=total damage to plant; 0=no damage to plant).
# [2] = test system: ECHCG (Echinochloa crus-galli); test: Post-emergence glasshouse herbicide test on ECHCG
# Method: as §1, §2
# [3] = test system: ABUTH (Abutilon theophrasti); test: Post-emergence glasshouse herbicide test on ABUTH
# Method: as §1, §2
# [4] = test system: AMARE (Amaranthus retroflexus); test: Post-emergence glasshouse herbicide test on AMARE
# Method: as §1, §2
Compound,HORVW damage to plant (100=total damage to plant; 0=no damage to plant) ([1]; Rate 125 g/ha),HORVW damage to plant (100=total damage to plant; 0=no damage to plant) ([1]; Rate 250 g/ha),ECHCG damage to plant (100=total damage to plant; 0=no damage to plant) ([2]; Rate 125 g/ha),ECHCG damage to plant (100=total damage to plant; 0=no damage to plant) ([2]; Rate 250 g/ha),ABUTH damage to plant (100=total damage to plant; 0=no damage to plant) ([3]; Rate 125 g/ha),ABUTH damage to plant (100=total damage to plant; 0=no damage to plant) ([3]; Rate 250 g/ha),AMARE damage to plant (100=total damage to plant; 0=no damage to plant) ([4]; Rate 125 g/ha),AMARE damage to plant (100=total damage to plant; 0=no damage to plant) ([4]; Rate 250 g/ha)
COc1ccc(-n2nc(C)cc(C(=O)C3C(=O)C(C)(C)C(=O)C(C)(C)C3=O)c2=O)cc1OC [Compound 1.5],0,0,90,90,100,100,100,100
COc1ccc(-n2nc(C3CC3)cc(C(=O)C3C(=O)C4CCC(C4)C3=O)c2=O)cc1OC (centres unmarked) [Compound 1.9],0,10,100,100,100,100,90,100
"COc1ccc(-n2nc(C3CC3)cc(C(=O)C3C(=O)C(C)(C)C(=O)C(C)(C)C3=O)c2=O)cc1OC [Compound 1.11, 6-[6-cyclopropyl-2-(3,4-dimethoxyphenyl)-3-oxo-pyridazine-4-carbonyl]-2,2,4,4-tetramethyl-cyclohexane-1,3,5-trione]",0,0,100,100,100,100,100,100
COc1ccc(-n2nc(C)cc(C(=O)C3C(=O)CC(C)CC3=O)c2=O)cc1OC (centres unmarked) [Compound 1.2],0,0,100,100,100,100,100,100
"COc1ccc(-n2nc(C)cc(C(=O)C3C(=O)C4CCC(C4)C3=O)c2=O)cc1OC (centres unmarked) [Compound 1.1, 3-[2-(3,4-dimethoxyphenyl)-6-methyl-3-oxo-pyridazine-4-carbonyl]bicyclo[3.2.1]octane-2,4-dione]",0,0,100,100,100,100,100,100
"COc1ccc(-n2nc(C)cc(C(=O)C3C(=O)CCCC3=O)c2=O)cc1OC [Compound 1.3, 2-[2-(3,4-Dimethoxyphenyl)-6-methyl-3-oxo-pyridazine-4-carbonyl]cyclohexane-1,3-dione]",0,0,100,100,100,100,100,100
COc1ccc(-n2nc(C)cc(C(=O)C3C(=O)CC(C)(C)CC3=O)c2=O)cc1OC [Compound 1.4],0,10,100,100,100,100,100,100
